Results taken from US12084680B2, “Methods for efficient derivation of human motor neurons from diverse spinal regions” (Wisconsin Alumni Research Foundation, priority 2016, dated 2024).

Legend:
H9 hESCs [1] = assay: NKX6.1 induction in neurally differentiating H9 hESCs after 24 h treatment (flow cytometry, RT-PCR, day 3); format: cell-based, human
Protocol: NKX6.1 is the earliest expressed marker in the motor neuron development cascade in vivo, so we examined its expression in response to Wnt/β-catenin, RA, and SHH signaling during hPSC motor neuron differentiation. H9 hESCs were differentiated in E6 medium for 2 days to initiate neural fate acquisition34 and then treated with combinations of RA, purmorphamine (PM, a small molecule agonist of SHH signaling), and CHIR for 24 h (FIG. 4A). […] Using the H9 ishcat2 line, we observed that CHIR-mediated induction of NKX6.1 was β-catenin-dependent, as the optimal 3 days of shRNA-mediated CTNNB1 knockdown upstream of CHIR treatment was required to maximally reduce NKX6.1 induction to 44±1% (FIG. 4E). The correlation between NKX6.1 knockdown and days of doxycycline treatment was presumably due to the time delay for shRNA synthesis and subsequent gene knockdown in Tet-on systems. […] Exogenously added WNT3A (200 ng/mL) could also induce NKX6.1 expression (60±14%) (FIG. 4G), providing further evidence for the involvement of Wnt/β-catenin signaling in this process. In contrast, simultaneous treatment with CHIR and BMP4 (200 ng/mL), a dorsal patterning factor, reduced the expression of NKX6.1 from 91±1% to 68±2% (FIG. 4H).
(§1) hESCs were dissociated with accutase (Thermo Fisher Scientific) and reseeded at 1×10^5 cells/cm2 in E8 medium containing 10 μM ROCK inhibitor (Y27632; R&D Systems) on 6-well polystyrene tissue culture plates coated with 100 μg/mL poly-L-ornithine (PLO; Sigma) and 8 μg/well VTN-NC. The timelines and relevant growth factors/small molecules for all differentiation procedures are described in detail in the Results section and its accompanying figures. Cells were differentiated for various amounts of time in E6 medium containing the same insulin concentration as E8 medium as described above with varying combinations of soluble factors (product information and concentration ranges are found in Table 2). For neuromesodermal induction and HOX propagation, cells were sequentially cultured with FGF8b, CHIR99021 (CHIR), GDF11, and dorsomorphin (DM) as previously described. Briefly, to initiate the neuromesodermal state, cells were changed to E6 medium followed by addition of FGF8b (200 ng/ml) 24 h later. To generate cervical neuromesodermal progenitors, cells were washed with PBS, treated with accutase, and re-seeded in E6 medium containing 200 ng/ml FGF8b, 3 μM CHIR, and 10 μM Y27632 on VTN-NC-coated plates at a density of 1.5×10^5 cells/cm^2 for 48 h. To generate thoracic neuromesodermal progenitors, cells were passaged again after 72 h of CHIR treatment and re-seeded at different densities as described in the text.
Thoracic identity was reached after an additional 24 h. Then, to reach the lumbosacral level, cells were given 30 ng/ml GDF11 and 1 μM DM for an additional 48 h. For neuroectoderm induction and generation of OLIG2^+ progenitors, FGF8b was removed at the designated time points and the concentration of CHIR was increased for 6 h as described in the text, followed by a transition to media containing RA, PM, and SHH for a period of 48 h. For differentiation of the OLIG2^+ progenitors to motor neurons, cells were subcultured by en bloc passage using a cell scraper, reseeded at a 1:200 ratio in Matrigel-coated 8-well chamber slides, and differentiated for 14 days in E6 medium containing 1 μM RA, 100 nM PM, and 100 ng/mL SHH, with media exchange every 3 days (10 μM Y27632 was included during the en bloc passaging step and removed after the first media exchange). For differentiation of lumbar cultures, 1 μM DM was included in all steps. For the myoblast co-culture experiments, OLIG2^+ cultures were en bloc passaged, frozen in E6 medium containing 10% DMSO, shipped to a different location, and thawed 1:10 in 6-well plates under the same conditions as described in FIG. 5. To facilitate neuronal maturation prior to myoblast co-culture, 5 μM DAPT (Tocris) was added from days 8-14 post-thaw. […]

H9 hESCs [2] = assay: OLIG2 induction in thoracic and lumbar neuroectoderm at various day 5 reseed densities; format: cell-based, human; settings: for PAX6+/OLIG2+ cells: reseed 1.5×10^5 cells/cm^2
From the text: However, OLIG2 induction was less efficient upon employing the standard deterministic HOX patterning protocol to generate thoracic and lumbar neuromesoderm followed by a CHIR boost and application of RA and SHH/PM (FIG. 6A). Only 11±2% and 67±9% of the cells in the thoracic and lumbar cultures, respectively, were PAX6^+/OLIG2^+ (FIGS. 6B-6C). We noted that our standard neuromesodermal protocol always used a reseed density of 1.5×10^5 cells/cm^2, which generates a relatively confluent but not tightly packed cell monolayer 24 h after seeding. Having previously determined that cell density and cell-cell contacts can serve as modulators of neural fate, we explored the effects of seeding density on OLIG2 induction.
as §1
Thoracic identity was reached after an additional 24 h. Then, to reach the lumbosacral level, cells were given 30 ng/ml GDF11 and 1 μM DM for an additional 48 h. For neuroectoderm induction and generation of OLIG2^+ progenitors, FGF8b was removed at the designated time points and the concentration of CHIR was increased for 6 h as described in the text, followed by a transition to media containing RA, PM, and SHH for a period of 48 h. For differentiation of the OLIG2^+ progenitors to motor neurons, cells were subcultured by en bloc passage using a cell scraper, reseeded at a 1:200 ratio in Matrigel-coated 8-well chamber slides, and differentiated for 14 days in E6 medium containing 1 μM RA, 100 nM PM, and 100 ng/mL SHH, with media exchange every 3 days (10 μM Y27632 was included during the en bloc passaging step and removed after the first media exchange). For differentiation of lumbar cultures, 1 μM DM was included in all steps. For the myoblast co-culture experiments, OLIG2^+ cultures were en bloc passaged, frozen in E6 medium containing 10% DMSO, shipped to a different location, and thawed 1:10 in 6-well plates under the same conditions as described in FIG. 5. To facilitate neuronal maturation prior to myoblast co-culture, 5 μM DAPT (Tocris) was added from days 8-14 post-thaw. Flow cytometry, RT-PCR, and qPCR (RPS18 and CTNNB1 Taqman primers from Thermo Fisher Scientific) were conducted as previously described.

Cc1c[nH]c(-c2cnc(NCCNc3ccc(C#N)cn3)nc2-c2ccc(Cl)cc2Cl)n1 [CHIR, CHIR99021]
NKX6.1 expression (flow cytometry) (H9 hESCs [1]; CHIR 4 μM without BMP4, day 3): 91±1%
NKX6.1 expression (flow cytometry) (H9 hESCs [1]; CHIR alone 6 μM, 24 h, analysed day 3): 98±1%
NKX6.1 and OLIG2 gene expression (RT-PCR) (H9 hESCs [1]; CHIR alone 6 μM, 24 h, day 3): sufficient to induce NKX6.1 but not OLIG2 gene expression
PAX6+/OLIG2+ cells (H9 hESCs [2]; lumbar culture, CHIR boost then RA and SHH/PM): 67±9%
OLIG2+ cells (H9 hESCs [2]; lumbar neuroectoderm, reseed 4×10^5 cells/cm^2, with dorsomorphin, CHIR boost then RA and SHH/PM): 82±3%
PAX6+/OLIG2+ cells (H9 hESCs [2]; thoracic culture, CHIR boost then RA and SHH/PM): 11±2%
OLIG2+ cells (H9 hESCs [2]; thoracic neuroectoderm, day 5 reseed 1×10^5 cells/cm^2, CHIR boost then RA and SHH/PM): 19±5%
OLIG2+ cells (H9 hESCs [2]; thoracic neuroectoderm, day 5 reseed 2×10^5 cells/cm^2, CHIR boost then RA and SHH/PM): 48±3%
OLIG2+ cells (H9 hESCs [2]; thoracic neuroectoderm, day 5 reseed 4×10^5 cells/cm^2, CHIR boost then RA and SHH/PM): 80±3%
